Test results: patent US6358885B1, “Substituted phenylheterocyclic herbicides” (Mississippi State University, priority 1992, dated 2002)

Columns and labels:
[1] = test system: wild buckwheat; experiment: Test B preemergence/postemergence greenhouse plant response rating 0 to 10; type: in vivo, Polygonum convolvulus; settings: 0 to 10 scale
Method in brief: (§1)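 Test chemicals were sprayed onto freshly planted seed and, concurrently, onto young plants between the one and four leaf stage. After a twelve- to sixteen-day greenhouse period, each species was visually compared with untreated controls.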

[2] = test system: bedstraw; experiment: Test C preemergence/postemergence greenhouse plant response rating 0 to 100; type: in vivo, Galium aparine; settings: for Plant response rating, Bedstraw: 62 g/ha, 0 to 100 scale
Method in brief: (§2)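 Compounds in non-phytotoxic solvent applied preemergence to sandy loam one day after planting, postemergence at the 1–4 leaf stage, or to ~2.5 cm floodwater over silt loam.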

[3] = test system: umbrella sedge; experiment: Test C flood test plant response rating 0 to 100; type: in vivo, Cyperus difformis
Method in brief: as §2

[4] = test system: duck salad; experiment: Test C flood test plant response rating 0 to 100; type: in vivo, Heteranthera limosa
Method in brief: as §2

[5] = test system: cocklebur; experiment: Test B preemergence/postemergence greenhouse plant response rating 0 to 10; type: in vivo, Xanthium pensylvanicum; settings: 0 to 10 scale
Method in brief: as §1

[6] = test system: sugar beet; experiment: Test C preemergence/postemergence greenhouse plant response rating 0 to 100; type: in vivo, Beta vulgaris
Method in brief: as §2

[7] = test system: corn; experiment: as above; type: in vivo, Zea mays; settings: for Plant response rating, Corn: 62 g/ha, 0 to 100 scale
Method in brief: as §2

[8] = test system: blackgrass; experiment: as above; type: in vivo, Alopecurus myosuroides; settings: for Plant response rating, Blackgrass: 62 g/ha, 0 to 100 scale
Method in brief: as §2

[9] = test system: rice; experiment: Test B preemergence/postemergence greenhouse plant response rating 0 to 10; type: in vivo, Oryza sativa; settings: Rate 50 g/ha, 0 to 10 scale
Method in brief: as §1

[10] = POSTEMERGENCE section, flood test, Rate 1 g/ha
[11] = POSTEMERGENCE section, flood test, Rate 4 g/ha
[12] = Rate 16 g/ha, under POSTEMERGENCE head (flood test species)
[13] = flood test species listed under POSTEMERGENCE, 62 g/ha, 0 to 100 scale

CC(C)Oc1cc(-c2nn3c(c2Br)CCCC3)c(F)cc1Cl [Compound 38]
90: Plant response rating, Bedstraw ([2]; POSTEMERGENCE)
40: Plant response rating (0 to 100), Corn ([7]; Rate 16 g/ha, POSTEMERGENCE) | Plant response rating, Blackgrass ([8]; POSTEMERGENCE)
70: Plant response rating (0 to 100), Sugar beet ([6]; POSTEMERGENCE, Rate 4 g/ha)
0: Plant response rating (0 to 100), Bedstraw ([2]; PREEMERGENCE, Rate 1 g/ha) | Plant response rating (0 to 100), Bedstraw ([2]; PREEMERGENCE, Rate 4 g/ha) | Plant response rating (0 to 100), Umbrella sedge [3, 10] | Plant response rating (0 to 100), Umbrella sedge [3, 11] | Plant response rating (0 to 100), Duck salad [4, 10] | Plant response rating (0 to 100), Duck salad [4, 11] | Plant response rating, Cocklebur ([5]; PREEMERGENCE, Rate 50 g/ha) | Plant response rating (0 to 100), Sugar beet ([6]; PREEMERGENCE, Rate 1 g/ha) | Plant response rating (0 to 100), Sugar beet ([6]; PREEMERGENCE, Rate 4 g/ha) | Plant response rating, Corn ([7]; PREEMERGENCE) | Plant response rating (0 to 100), Corn ([7]; PREEMERGENCE, Rate 1 g/ha) | Plant response rating (0 to 100), Corn ([7]; PREEMERGENCE, Rate 4 g/ha) | Plant response rating (0 to 100), Corn ([7]; Rate 16 g/ha, PREEMERGENCE) | Plant response rating (0 to 100), Blackgrass ([8]; PREEMERGENCE, Rate 1 g/ha) | Plant response rating (0 to 100), Blackgrass ([8]; PREEMERGENCE, Rate 4 g/ha) | Plant response rating (0 to 100), Blackgrass ([8]; Rate 16 g/ha, PREEMERGENCE) | Plant response rating, Rice ([9]; PREEMERGENCE)
50: Plant response rating, Bedstraw ([2]; PREEMERGENCE) | Plant response rating (0 to 100), Bedstraw ([2]; Rate 4 g/ha, POSTEMERGENCE) | Plant response rating (0 to 100), Bedstraw ([2]; Rate 16 g/ha, POSTEMERGENCE) | Plant response rating Umbrella sedge [3, 13] | Plant response rating Duck salad [4, 13] | Plant response rating, Corn ([7]; POSTEMERGENCE)
5: Plant response rating, Cocklebur ([5]; Rate 200 g/ha, PREEMERGENCE) | Plant response rating, Rice ([9]; POSTEMERGENCE)
8: Plant response rating, Wild buckwheat ([1]; PREEMERGENCE, Rate 50 g/ha) | Plant response rating, Cocklebur ([5]; POSTEMERGENCE, Rate 50 g/ha)
100: Plant response rating, Sugar beet ([6]; POSTEMERGENCE, 62 g/ha, 0 to 100 scale) | Plant response rating (0 to 100), Sugar beet ([6]; Rate 16 g/ha, POSTEMERGENCE)
20: Plant response rating (0 to 100), Bedstraw ([2]; POSTEMERGENCE, Rate 1 g/ha) | Plant response rating (0 to 100), Bedstraw ([2]; Rate 16 g/ha, PREEMERGENCE) | Plant response rating (0 to 100), Umbrella sedge [3, 12] | Plant response rating (0 to 100), Duck salad [4, 12] | Plant response rating (0 to 100), Sugar beet ([6]; POSTEMERGENCE, Rate 1 g/ha) | Plant response rating (0 to 100), Corn ([7]; Rate 4 g/ha, POSTEMERGENCE) | Plant response rating (0 to 100), Blackgrass ([8]; Rate 16 g/ha, POSTEMERGENCE)
10: Plant response rating, Wild buckwheat ([1]; POSTEMERGENCE, Rate 50 g/ha) | Plant response rating, Wild buckwheat ([1]; Rate 200 g/ha, POSTEMERGENCE) | Plant response rating, Wild buckwheat ([1]; Rate 200 g/ha, PREEMERGENCE) | Plant response rating, Cocklebur ([5]; POSTEMERGENCE, Rate 200 g/ha) | Plant response rating (0 to 100), Corn ([7]; POSTEMERGENCE, Rate 1 g/ha) | Plant response rating (0 to 100), Blackgrass ([8]; POSTEMERGENCE, Rate 1 g/ha) | Plant response rating (0 to 100), Blackgrass ([8]; Rate 4 g/ha, POSTEMERGENCE)
30: Plant response rating (0 to 100), Sugar beet ([6]; Rate 16 g/ha, PREEMERGENCE) | Plant response rating, Blackgrass ([8]; PREEMERGENCE)
